Activity calls are given as the source filed them. How the calls were made is not given here.
Test system: MRP1 cells, doxorubicin viability shift, 10 uM compound
Assay: doxorubicin EC50 increase in MRP-1 cells, dose response, cell-based, doxorubicin EC50 shift (AID 844)
Conditions: for EC50: measured here: doxorubicin EC50 with compound

SMILES | fold increase in Dox EC50 | EC50 [µM]
CCOC(=O)c1c(-c2ccc(F)cc2)csc1NC(=O)c1c(-c2ccccc2)noc1C | 0.56 (inactive) | 3
O=C(NCc1ccc(F)cc1)C(=O)NCC1OCCN1C(=O)c1cccs1 (configuration not stated) | 1.24 (inactive) | 6.68
c1ccc2c(-c3nc(C4CCCCC4)no3)cc(-c3ccncc3)nc2c1 | 0.62 (inactive) | 3.32
COc1ccc(N2CCN(c3nc(Cl)nc(N4CCOCC4)n3)CC2)cc1 | 0.69 (inactive) | 3.72
Oc1c(C(c2cccs2)N2CCN(c3ccc(F)cc3)CC2)sc2ncnn12 (configuration not stated) | 1.32 (inactive) | 7.1
Cc1ccc(/C=C2\SC(=S)N(CCCC(=O)Nc3nccs3)C2=O)cc1 | 0.3 (inactive) | 1.64
CC(CCc1ccccc1)NC(=O)c1nnc(Cc2ccc(Cl)cc2)o1 (configuration not stated) | 1.13 (inactive) | 6.1
O=C(CSc1nnc(-c2ccccc2)n1-c1ccc(Cl)cc1)N/N=C/c1ccco1 | 0.53 (inactive) | 2.84
CN=C1S/C(=C\c2cc(C)n(-c3ccccc3F)c2C)C(=O)N1C | 0.65 (inactive) | 3.49
Cc1ccc2nc(NC(=O)CCNS(=O)(=O)c3cccs3)sc2c1 | 0.56 (inactive) | 3
CCCn1c(C)cc(/C=C(\C#N)C(=O)OCC(=O)Nc2ccc(OC)c(Cl)c2)c1C | 0.7 (inactive) | 3.81
C=CCOC(=O)C(C#N)c1nc2ccccc2nc1N1CCN(c2ccccc2OCC)CC1 (configuration not stated) | 0.56 (inactive) | 3.05
Cc1noc(/C=C/N(C)C)c1S(=O)(=O)N1CCCC(C(=O)NCc2cccs2)C1 (configuration not stated) | 1.32 (inactive) | 7.11
CC(C)(C)NC(=O)c1cccc(NC(=O)Cc2ccc(Br)cc2)c1 | 0.97 (inactive) | 5.23
Cc1ccc(Nc2nnc(-c3ccc(N4CCOCC4)c([N+](=O)[O-])c3)c3ccccc23)cc1 | 0.61 (inactive) | 3.28
O=C1NC(=Nc2ccccc2)SC1Cc1cccc(Cl)c1Cl (configuration not stated) | 1.21 (inactive) | 6.54
CC(=O)Nc1ccc(-n2c(C)nc(=O)c(-c3ccccc3)c2C)cc1 | 0.89 (inactive) | 4.83
CCC(Sc1nc(-c2ccccc2)c(C#N)c(=O)[nH]1)C(=O)Nc1nnc(C)s1 (configuration not stated) | 1.82 | 9.85
O=C(CSc1ncn[nH]1)NC12CC3CC(CC(C3)C1)C2 | 0.64 (inactive) | 3.43
CC(C)Cc1nnc(NC(=O)CSc2ncn[nH]2)s1 | 0.9 (inactive) | 4.87
C=CCc1c(C)nc(-c2ccccc2)nc1N/N=C(\C)c1ccccc1 | 0.43 (inactive) | 2.34
Cc1cccc2cc(CN(Cc3cccs3)S(=O)(=O)c3ccc4c(c3)OCCO4)c(=O)[nH]c12 | 1.47 (inactive) | 7.94
Cc1ccc(NC(=O)CSc2nc(O)cc(=O)n2C)cc1 | 1.34 (inactive) | 7.25
CCOC(=O)C1=C(C)Nc2ncnn2C1c1cccnc1 (configuration not stated) | 0.83 (inactive) | 4.5
S=C(c1ccc(-c2ccccc2Cl)o1)N1CCCCC1 | 0.85 (inactive) | 4.59
Cc1cccc(NC(=O)CSc2nc(-c3ccccc3)c(C#N)c(=O)[nH]2)c1C | 1.24 (inactive) | 6.71

SMILES | fold increase in Dox EC50 | EC50 [µM]
COc1ccccc1NC(=O)CSC(N)=O | 0.81 (inactive) | 4.4
O=C(COc1ccc(F)cc1)Nc1ccc(-n2cnnn2)cc1 | 0.75 (inactive) | 4.04
COc1cc(/C=N/NC(=O)C23CC4CC(CC(C4)C2)C3)cc(Br)c1O | 0.66 (inactive) | 3.54
COc1ccccc1NS(=O)(=O)c1cc(NC(=O)/C=C/c2cccs2)ccc1N1CCOCC1 | 0.81 (inactive) | 4.36
Cc1ccc2c(C)nc(/N=C(\N)NC(=O)N3c4ccccc4Sc4ccccc43)nc2c1 | 1.38 (inactive) | 7.48
Cc1cc2n(n1)C(c1ccccc1)CC(c1ccc(Br)cc1)=N2 (configuration not stated) | 0.76 (inactive) | 4.12
COc1cccc(Nc2nc3ccccc3nc2-n2nc(C)cc2C)c1 | 0.35 (inactive) | 1.89
CCNc1oc(-c2cccc3ccccc23)nc1C#N | 0.68 (inactive) | 3.68
Cc1cc(C)n(-c2ccc(C(=O)Nc3cccc(S(=O)(=O)N(C)C)c3)cc2)n1 | 0.73 (inactive) | 3.93
O=C(CSc1ncn[nH]1)Nc1ccc(Br)cc1F | 0.98 (inactive) | 5.28
CCc1nnc(NC(=O)c2ccc(COc3ccc(C)cc3)o2)s1 | 1.33 (inactive) | 7.18
CCCCCn1c(CN2CCCCC2C)nc2c1c(=O)n(C)c(=O)n2C (configuration not stated) | 0.16 (inactive) | 0.883
CCC(C)Nc1ncnc2c1cnn2Cc1ccc(Cl)cc1 (configuration not stated) | 0.84 (inactive) | 4.55
CCOC(=O)c1ccc(N2C(=O)c3n[nH]c(C)c3C2c2ccc(OC)cc2OC)cc1 (configuration not stated) | 0.28 (inactive) | 1.51
Cc1ccc(-c2cc(C(F)F)nc(NCc3cccnc3)n2)cc1 | 0.52 (inactive) | 2.81
COc1cc(S(=O)(=O)Nc2cccc(C)c2)ccc1NC(=O)c1ccncc1 | 0.6 (inactive) | 3.26
N=C(N)SCc1cccc2ccccc12 | 0.35 (inactive) | 1.9
Cc1c(NC(=O)CSc2ccc(Cl)cc2)cccc1-c1nc2ncccc2o1 | 0.99 (inactive) | 5.34
Cc1nc(NC(=S)NC(=O)c2ccccc2)sc1C(=O)N(C)C | 1.24 (inactive) | 6.71
COc1cccc(/C=N/NC(=O)CNC(=O)C2COc3ccccc3O2)c1O (configuration not stated) | 0.12 (inactive) | 0.637
C=CCn1c(CNc2ccccc2)nnc1SCC(=O)N/N=C/c1ccccc1O | 0.58 (inactive) | 3.11
CCc1ccc(-c2csc(NC(=O)Oc3ccccc3)n2)cc1 | 1.23 (inactive) | 6.65
Cc1cc2nc(-c3cccc(NC(=O)c4ccc(Br)o4)c3C)oc2cc1C | 1.03 (inactive) | 5.56
Cc1nnc(NC(=O)COc2ccccc2)s1 | 1.25 (inactive) | 6.73
O=C(COc1ccc(Cl)cc1)NCc1nnc(SCC(=O)NCc2ccc3c(c2)OCO3)o1 | 1.06 (inactive) | 5.74
CNC(=S)Nc1ccc(C)cc1 | 0.67 (inactive) | 3.64

SMILES | fold increase in Dox EC50 | EC50 [µM]
O=C(c1cnn2c(C(F)(F)F)cc(-c3cccs3)nc12)N1CCN(C(c2ccccc2)c2ccccc2)CC1 | 0.17 (inactive) | 0.916
CCOC(=O)c1c(-c2cccs2)csc1NC(=O)CSc1ncn[nH]1 | 0.2 (inactive) | 1.09
Cc1onc(-c2ccccc2)c1C(=O)Nc1nnc(N(C)Cc2ccccc2)s1 | 0.64 (inactive) | 3.46
CCN(C(=O)c1cc2cc3ccc(C)cc3nc2o1)c1ccc(OC)cc1 | 0.64 (inactive) | 3.46
COc1ccc(/C=C2/N=C(SC3CCOC3=O)N(c3cccc(OC)c3)C2=O)cc1 (configuration not stated) | 0.68 (inactive) | 3.67
CC(C)(C)c1ccc(C(=O)CSc2ncn[nH]2)cc1 | 0.82 (inactive) | 4.41
CCC(=O)N1CCN=C1SCc1ccccc1 | 0.74 (inactive) | 3.98
CCCCn1nnc(NC(=S)NC(=O)c2cccs2)n1 | 1.16 (inactive) | 6.26
CC(C)c1ccc(CNc2cc(N3CCCC3)ccc2[N+](=O)[O-])cc1 | 0.81 (inactive) | 4.36
C=C(C)C(=O)NC1=NN(c2ccccc2)C(=O)C1 | 1.04 (inactive) | 5.63
O=C(CSc1ncn[nH]1)NCCC(c1ccccc1)c1ccccc1 | 0.56 (inactive) | 3.03
CC(C)c1ccc(C(=O)CSc2ncn[nH]2)cc1 | 0.96 (inactive) | 5.17
Cc1ccc(C)c2[nH]c(=O)c(CN(Cc3ccco3)S(=O)(=O)c3ccc4c(c3)OCCO4)cc12 | 0.88 (inactive) | 4.73
Cc1nc(N2CCN(Cc3ccccc3)CC2)nc2c1C(=O)CC(c1ccco1)C2 (configuration not stated) | 0.75 (inactive) | 4.04
Cc1cc(C)n(CCC(=O)N/N=C/c2ccccc2O)n1 | 0.28 (inactive) | 1.54
COc1ccc(-n2ncc3c(=O)n(CC(=O)N4c5ccccc5CC4C)cnc32)cc1 (configuration not stated) | 0.82 (inactive) | 4.44
CCOC(=O)C1=C(C)N=c2s/c(=C\c3ccc(OC(C)=O)cc3)c(=O)n2C1/C=C/c1ccccc1 (configuration not stated) | 0.34 (inactive) | 1.85
Cn1cc(Br)c(C(=O)NNC(=O)c2ccc(Br)cc2)n1 | 0.98 (inactive) | 5.26
Cc1cccc2cc(CN(Cc3cccs3)C(=S)NCc3ccco3)c(=O)[nH]c12 | 0.41 (inactive) | 2.21
O=C(CN1C(=O)/C(=C/c2ccccc2)SC1=S)Nc1ncc(Cc2ccccc2)s1 | 1.49 (inactive) | 8.03
CCOC(=O)c1ccc(N2CN=C3SCC(=O)N3C2)cc1 | 0.3 (inactive) | 1.6
COC(=O)N/N=C/c1ccc(-c2ccc(C)c(Cl)c2)o1 | 0.63 (inactive) | 3.41
CCOc1ccc2nc(SCC#N)c(C#N)cc2c1 | 0.3 (inactive) | 1.62
O=C(COc1ccc(Br)cc1)c1ccc2c(c1)CCCC2 | 1.17 (inactive) | 6.29

Source: PubChem BioAssay AID844 (SRMLSC, 2007)
